Source: paper PMC5218480 (PLoS ONE, 2017)

System: MV-4-11 cells
Assay: Gene expression microarray analysis (Affymetrix PrimeView) and GSEA
Assay type: cell-based, human
Parameters: RFU PODN (11730768_x_at) / Fold change /veh PODN (11730768_x_at) / RFU LINC00158 (11744669_a_at) / Fold change /veh LINC00158 (11744669_a_at) / RFU DUSP10 (11751237_a_at) / Fold change /veh DUSP10 (11751237_a_at) / RFU ID3 (11757404_x_at) / Fold change /veh ID3 (11757404_x_at) / RFU PLEKHG5 (11737974_s_at) / Fold change /veh PLEKHG5 (11737974_s_at) / RFU LRRC4B (11730491_at) / Fold change /veh LRRC4B (11730491_at) / RFU GIMAP4 (11747438_a_at) / Fold change /veh GIMAP4 (11747438_a_at) / RFU KRT8 (11758183_x_at) / Fold change /veh KRT8 (11758183_x_at) / RFU CNN1 (11734310_a_at) / Fold change /veh CNN1 (11734310_a_at) / RFU VPS37D (11726825_at) / Fold change /veh VPS37D (11726825_at) / RFU C10orf10 (11716522_x_at) / Fold change /veh C10orf10 (11716522_x_at) / RFU KIR2DL2 /// KIR2DL4 /// KIR2DL5A /// KIR2DL5B /// KIR2DS1 /// KIR2DS2 /// KIR2DS3 /// KIR2DS4 /// KIR3DL3 /// KIR3DL3 /// KIR3DS1 (11738374_at) / Fold change /veh KIR2DL2 /// KIR2DL4 /// KIR2DL5A /// KIR2DL5B /// KIR2DS1 /// KIR2DS2 /// KIR2DS3 /// KIR2DS4 /// KIR3DL3 /// KIR3DL3 /// KIR3DS1 (11738374_at) / RFU C1QL1 (11718748_at) / Fold change /veh C1QL1 (11718748_at) / RFU TMPRSS4 (11747572_a_at) / Fold change /veh TMPRSS4 (11747572_a_at) / RFU HAMP (11756126_x_at) / Fold change /veh HAMP (11756126_x_at) / RFU RNFT2 (11725882_a_at) / Fold change /veh RNFT2 (11725882_a_at) / RFU NR4A2 (11747474_a_at) / Fold change /veh NR4A2 (11747474_a_at) / RFU ABCC12 (11746883_a_at) / Fold change /veh ABCC12 (11746883_a_at) / RFU TMEM136 (11760407_x_at) / Fold change /veh TMEM136 (11760407_x_at) / RFU CLDN22 /// WWC2 (11732394_at) / Fold change /veh CLDN22 /// WWC2 (11732394_at) / RFU HLA-DPB1 (11760878_x_at) / Fold change /veh HLA-DPB1 (11760878_x_at) / RFU SPINT1 (11716480_a_at) / Fold change /veh SPINT1 (11716480_a_at) / RFU GAP43 (11754022_s_at) / Fold change /veh GAP43 (11754022_s_at) / RFU A4GNT (11735810_at) / Fold change /veh A4GNT (11735810_at) / RFU PRB3 (11715151_x_at) / Fold change /veh PRB3 (11715151_x_at) / RFU TUBB4B (11761932_at) / Fold change /veh TUBB4B (11761932_at) / RFU CAPN14 (11732068_a_at) / Fold change /veh CAPN14 (11732068_a_at) / RFU TMCC2 (11721928_a_at) / Fold change /veh TMCC2 (11721928_a_at) / RFU IRGQ (11745062_a_at) / Fold change /veh IRGQ (11745062_a_at) / RFU FAM174B (11720279_a_at) / Fold change /veh FAM174B (11720279_a_at) / RFU TMPRSS4 (11748680_a_at) / Fold change /veh TMPRSS4 (11748680_a_at) / RFU FAM212B (11763350_a_at) / Fold change /veh FAM212B (11763350_a_at) / RFU PLEKHG5 (11743358_a_at) / Fold change /veh PLEKHG5 (11743358_a_at) / RFU ZSCAN30 (11745921_a_at) / Fold change /veh ZSCAN30 (11745921_a_at) / RFU CMKLR1 (11741424_a_at) / Fold change /veh CMKLR1 (11741424_a_at) / RFU LOC101060620 /// MAPK8IP1 (11723275_at) / Fold change /veh LOC101060620 /// MAPK8IP1 (11723275_at) / RFU SPTSSB (11747773_x_at) / Fold change /veh SPTSSB (11747773_x_at) / RFU PRSS12 (11739890_at) / Fold change /veh PRSS12 (11739890_at) / RFU BIN1 (11741810_x_at) / Fold change /veh BIN1 (11741810_x_at) / RFU WNT11 (11732464_a_at) / Fold change /veh WNT11 (11732464_a_at) / RFU C10orf10 (11716521_a_at) / Fold change /veh C10orf10 (11716521_a_at) / RFU C5orf56 (11738089_at) / Fold change /veh C5orf56 (11738089_at) / RFU CYB561 (11721691_x_at) / Fold change /veh CYB561 (11721691_x_at) / RFU ANKRD19P (11752326_a_at) / Fold change /veh ANKRD19P (11752326_a_at) / RFU OR2T12 /// OR2T33 /// OR2T8 (11738714_s_at) / Fold change /veh OR2T12 /// OR2T33 /// OR2T8 (11738714_s_at) / RFU VCAN (11748164_a_at) / Fold change /veh VCAN (11748164_a_at) / RFU JSRP1 (11732532_at) / Fold change /veh JSRP1 (11732532_at) / RFU KRTAP10-11 (11738290_x_at) / Fold change /veh KRTAP10-11 (11738290_x_at) / RFU MYO3A (11730013_a_at) / Fold change /veh MYO3A (11730013_a_at) / RFU EBF3 (11725865_a_at) / Fold change /veh EBF3 (11725865_a_at) / RFU CAMK2N1 (11719241_x_at) / Fold change /veh CAMK2N1 (11719241_x_at) / RFU C5orf56 (11738088_a_at) / Fold change /veh C5orf56 (11738088_a_at) / RFU OLFML3 (11715873_a_at) / Fold change /veh OLFML3 (11715873_a_at) / RFU LOC100653217 /// NTM (11731650_a_at) / Fold change /veh LOC100653217 /// NTM (11731650_a_at) / RFU MAPK11 (11762145_a_at) / Fold change /veh MAPK11 (11762145_a_at) / RFU FIZ1 (11724087_x_at) / Fold change /veh FIZ1 (11724087_x_at) / RFU OASL (11726364_x_at) / Fold change /veh OASL (11726364_x_at) / RFU SOX15 (11748057_x_at) / Fold change /veh SOX15 (11748057_x_at) / RFU CD79A (11719716_a_at) / Fold change /veh CD79A (11719716_a_at) / RFU HIST1H1D (11736915_at) / Fold change /veh HIST1H1D (11736915_at) / RFU CASKIN2 (11723855_a_at) / Fold change /veh CASKIN2 (11723855_a_at) / RFU LOC730098 (11760151_x_at) / Fold change /veh LOC730098 (11760151_x_at) / RFU OR4N2 (11742367_at) / Fold change /veh OR4N2 (11742367_at) / RFU PRRT2 (11749266_a_at) / Fold change /veh PRRT2 (11749266_a_at) / RFU SNX32 (11753110_a_at) / Fold change /veh SNX32 (11753110_a_at) / RFU CDHR5 (11726645_a_at) / Fold change /veh CDHR5 (11726645_a_at) / RFU RCAN1 (11760418_a_at) / Fold change /veh RCAN1 (11760418_a_at) / RFU FAM167A (11723789_a_at) / Fold change /veh FAM167A (11723789_a_at) / RFU FAM26E (11764081_at) / Fold change /veh FAM26E (11764081_at) / RFU ISYNA1 (11749810_s_at) / Fold change /veh ISYNA1 (11749810_s_at) / RFU ACY1 (11761880_at) / Fold change /veh ACY1 (11761880_at) / RFU 11764098_at / Fold change /veh 11764098_at / RFU SAMD14 (11745864_x_at) / Fold change /veh SAMD14 (11745864_x_at) / RFU NPB (11741838_a_at) / Fold change /veh NPB (11741838_a_at) / RFU TMPRSS6 (11731388_a_at) / Fold change /veh TMPRSS6 (11731388_a_at) / RFU KRTAP10-2 (11738614_at) / Fold change /veh KRTAP10-2 (11738614_at) / RFU ARHGAP8 /// PRR5-ARHGAP8 (11727945_x_at) / Fold change /veh ARHGAP8 /// PRR5-ARHGAP8 (11727945_x_at) / RFU KRTAP5-7 /// NADSYN1 (11734609_at) / Fold change /veh KRTAP5-7 /// NADSYN1 (11734609_at) / RFU RASL12 (11751679_a_at) / Fold change /veh RASL12 (11751679_a_at) / RFU CDKN2B (11736163_a_at) / Fold change /veh CDKN2B (11736163_a_at) / RFU PRF1 (11729649_at) / Fold change /veh PRF1 (11729649_at) / RFU, ZNF638 /// ZNF638-IT1 / Fold change vs veh, ZNF638 /// ZNF638-IT1 / RFU, PANK3 / Fold change vs veh, PANK3 / RFU, SH3YL1 / Fold change vs veh, SH3YL1 / RFU, ZEB2 / Fold change vs veh, ZEB2 / RFU, NRIP1 / Fold change vs veh, NRIP1 / RFU, PTTG1IP / Fold change vs veh, PTTG1IP / RFU, CAPN2 / Fold change vs veh, CAPN2 / RFU, MED14 / Fold change vs veh, MED14 / RFU, SNORA58 / Fold change vs veh, SNORA58 / RFU, C1orf63 / Fold change vs veh, C1orf63 / RFU, LRRFIP1 / Fold change vs veh, LRRFIP1 / RFU, NDUFAF7 / Fold change vs veh, NDUFAF7 / RFU, SLC12A2 / Fold change vs veh, SLC12A2 / RFU, IBTK / Fold change vs veh, IBTK / RFU, ESF1 / Fold change vs veh, ESF1 / Fold change vs veh, TMEM50B / RFU, TAOK1 / Fold change vs veh, TAOK1 / RFU, ACBD3 / Fold change vs veh, ACBD3 / RFU, TMA16 / Fold change vs veh, TMA16 / RFU, RWDD3 / Fold change vs veh, RWDD3 / RFU, BCAT1 / Fold change vs veh, BCAT1 / RFU, EDEM3 / Fold change vs veh, EDEM3 / RFU, TMEM33 / Fold change vs veh, TMEM33 / RFU, WDR75 / Fold change vs veh, WDR75 / RFU, AHCTF1 / Fold change vs veh, AHCTF1 / RFU, TFRC / Fold change vs veh, TFRC / RFU, ZDHHC17 / Fold change vs veh, ZDHHC17 / RFU, NOM1 / Fold change vs veh, NOM1 / RFU, ARL8B / Fold change vs veh, ARL8B / RFU, ZBTB11 / Fold change vs veh, ZBTB11 / RFU, TAMM41 / Fold change vs veh, TAMM41 / RFU, KIAA1704 /// LOC100996395 / Fold change vs veh, KIAA1704 /// LOC100996395 / RFU, ING1 / Fold change vs veh, ING1 / RFU, TRMT61B / Fold change vs veh, TRMT61B / RFU, FUBP3 / Fold change vs veh, FUBP3 / RFU, TP53 / Fold change vs veh, TP53 / RFU, TNKS2 / Fold change vs veh, TNKS2 / RFU, ZFP14 / Fold change vs veh, ZFP14 / RFU, ACTR2 / Fold change vs veh, ACTR2 / RFU, PPP3R1 / Fold change vs veh, PPP3R1 / RFU, PIK3R1 / Fold change vs veh, PIK3R1 / RFU, HNRNPA1 / Fold change vs veh, HNRNPA1 / RFU, RNF170 / Fold change vs veh, RNF170 / RFU, ZNF28 / Fold change vs veh, ZNF28 / RFU, RNGTT / Fold change vs veh, RNGTT / RFU, OGT / Fold change vs veh, OGT / RFU, BRD1 / Fold change vs veh, BRD1 / RFU, MARS / Fold change vs veh, MARS / RFU, ZNF655 / Fold change vs veh, ZNF655 / RFU, FAHD1 / Fold change vs veh, FAHD1 / RFU, BDP1 / Fold change vs veh, BDP1 / RFU, LRRCC1 / Fold change vs veh, LRRCC1 / RFU, ARID1A / Fold change vs veh, ARID1A / RFU, ZNF146 / Fold change vs veh, ZNF146 / RFU, ZNF330 / Fold change vs veh, ZNF330 / RFU, GPN3 / Fold change vs veh, GPN3 / RFU, C9orf123 / Fold change vs veh, C9orf123 / RFU, N4BP2L2 / Fold change vs veh, N4BP2L2 / RFU, ARFIP1 / Fold change vs veh, ARFIP1 / RFU, FAM179B / Fold change vs veh, FAM179B / RFU, BCL10 / Fold change vs veh, BCL10 / RFU, UHRF1BP1L / Fold change vs veh, UHRF1BP1L / RFU, BET1 / Fold change vs veh, BET1 / RFU, CNOT2 / Fold change vs veh, CNOT2 / RFU, ZNF268 / Fold change vs veh, ZNF268 / Fold change vs veh, ZNF507 / RFU, DGCR2 / Fold change vs veh, DGCR2 / RFU, WDSUB1 / Fold change vs veh, WDSUB1 / Fold change vs veh, HSP90B1 /// MIR3652 / RFU, ADSS / Fold change vs veh, ADSS / RFU, GK / Fold change vs veh, GK / RFU, ZNF148 / Fold change vs veh, ZNF148 / RFU, TAF9 / Fold change vs veh, TAF9 / RFU, SLC1A5 / Fold change vs veh, SLC1A5 / RFU, SLMO2 / Fold change vs veh, SLMO2 / RFU, ABCC4 / Fold change vs veh, ABCC4 / RFU, LOC101060439 /// RAP1B / Fold change vs veh, LOC101060439 /// RAP1B / RFU, RFX7 / Fold change vs veh, RFX7 / RFU, GTPBP10 / Fold change vs veh, GTPBP10 / RFU, CNEP1R1 / Fold change vs veh, CNEP1R1 / RFU, BIVM-ERCC5 /// ERCC5 / Fold change vs veh, BIVM-ERCC5 /// ERCC5 / RFU, ILF3 / Fold change vs veh, ILF3 / RFU 11762660_at / Fold change /veh 11762660_at / RFU VCAN (11757783_s_at) / Fold change /veh VCAN (11757783_s_at) / RFU DDX43 (11728927_at) / Fold change /veh DDX43 (11728927_at) / RFU KRT8 (11758188_x_at) / Fold change /veh KRT8 (11758188_x_at) / RFU NKD1 (11759106_at) / Fold change /veh NKD1 (11759106_at) / RFU SRD5A1 (11742802_a_at) / Fold change /veh SRD5A1 (11742802_a_at) / RFU TPSAB1 /// TPSB2 (11721975_s_at) / Fold change /veh TPSAB1 /// TPSB2 (11721975_s_at) / RFU GSTM3 (11746129_a_at) / Fold change /veh GSTM3 (11746129_a_at) / RFU IL23R (11737362_x_at) / Fold change /veh IL23R (11737362_x_at) / RFU TMEM51 (11727254_a_at) / Fold change /veh TMEM51 (11727254_a_at) / RFU PIWIL2 (11732686_x_at) / Fold change /veh PIWIL2 (11732686_x_at) / RFU ORM1 (11744905_x_at) / Fold change /veh ORM1 (11744905_x_at) / RFU CCDC152 (11743942_at) / Fold change /veh CCDC152 (11743942_at) / RFU ECM1 (11717891_a_at) / Fold change /veh ECM1 (11717891_a_at) / RFU IL23R (11748794_a_at) / Fold change /veh IL23R (11748794_a_at) / RFU TNFAIP8L3 (11732012_x_at) / Fold change /veh TNFAIP8L3 (11732012_x_at) / RFU MBOAT4 (11741988_at) / Fold change /veh MBOAT4 (11741988_at) / RFU 11764193_at / Fold change /veh 11764193_at / RFU TMEM53 (11763286_at) / Fold change /veh TMEM53 (11763286_at) / RFU MAGEB2 (11727129_at) / Fold change /veh MAGEB2 (11727129_at) / RFU TMEM200A (11744735_a_at) / Fold change /veh TMEM200A (11744735_a_at) / RFU CCDC152 (11751479_a_at) / Fold change /veh CCDC152 (11751479_a_at) / RFU FAM211A (11726209_a_at) / Fold change /veh FAM211A (11726209_a_at) / RFU RGS16 (11746705_a_at) / Fold change /veh RGS16 (11746705_a_at) / RFU VCAN (11755009_s_at) / Fold change /veh VCAN (11755009_s_at) / RFU RHOB (11743442_s_at) / Fold change /veh RHOB (11743442_s_at) / RFU RGS16 (11720943_a_at) / Fold change /veh RGS16 (11720943_a_at) / RFU RGS16 (11720944_at) / Fold change /veh RGS16 (11720944_at) / RFU, VPS4B / Fold change vs veh, VPS4B / RFU, CREB1 / Fold change vs veh, CREB1 / RFU, DNAJC13 / Fold change vs veh, DNAJC13 / RFU, GNAQ / Fold change vs veh, GNAQ / RFU, CDK5R1 / Fold change vs veh, CDK5R1 / RFU, ZRANB3 / Fold change vs veh, ZRANB3 / RFU, CUL4A / Fold change vs veh, CUL4A / RFU, CCNY / Fold change vs veh, CCNY / RFU, UFL1 / Fold change vs veh, UFL1 / RFU, COG3 / Fold change vs veh, COG3 / RFU, DIAPH2 / Fold change vs veh, DIAPH2 / RFU, SKA2 / Fold change vs veh, SKA2 / RFU, AFF3 / Fold change vs veh, AFF3 / RFU, LMF1 / Fold change vs veh, LMF1 / RFU, IPO11 / Fold change vs veh, IPO11 / RFU, DFFB / Fold change vs veh, DFFB / RFU, FOXP1 / Fold change vs veh, FOXP1 / RFU, CARD8 / Fold change vs veh, CARD8 / RFU, STRN3 / Fold change vs veh, STRN3 / RFU, ADK / Fold change vs veh, ADK / RFU, RASSF2 / Fold change vs veh, RASSF2 / RFU, WIPF1 / Fold change vs veh, WIPF1 / RFU, LARP1B / Fold change vs veh, LARP1B / RFU, RASA1 / Fold change vs veh, RASA1 / RFU, RB1 / Fold change vs veh, RB1 / RFU, PPFIA1 / Fold change vs veh, PPFIA1 / RFU, MAT2A / Fold change vs veh, MAT2A / RFU, CCT5 / Fold change vs veh, CCT5 / RFU, WDR92 / Fold change vs veh, WDR92 / RFU, CUX1 / Fold change vs veh, CUX1 / RFU, TTC7A / Fold change vs veh, TTC7A / RFU, TMEM135 / Fold change vs veh, TMEM135 / RFU, DEPTOR / Fold change vs veh, DEPTOR / RFU, CPM / Fold change vs veh, CPM / RFU, DNAJB6 / Fold change vs veh, DNAJB6 / RFU, CACNA2D3 / Fold change vs veh, CACNA2D3 / RFU, DTX4 / Fold change vs veh, DTX4 / RFU, TFCP2 / Fold change vs veh, TFCP2 / RFU, GMCL1 /// GMCL1P1 / Fold change vs veh, GMCL1 /// GMCL1P1 / RFU, AEBP2 / Fold change vs veh, AEBP2 / RFU, SNHG1 /// SNORD22 /// SNORD25 /// SNORD26 /// SNORD27 /// SNORD28 /// SNORD29 /// SNORD31 / Fold change vs veh, SNHG1 /// SNORD22 /// SNORD25 /// SNORD26 /// SNORD27 /// SNORD28 /// SNORD29 /// SNORD31 / Fold change (Aza/veh), C12orf56 (ProbeSet 11735607_a_at) / Fold change (ACY-1035/veh), C12orf56 (ProbeSet 11735607_a_at) / Fold change (Aza/veh), FGFR1OP (ProbeSet 11751329_s_at) / Fold change (ACY-1035/veh), FGFR1OP (ProbeSet 11751329_s_at) / Fold change (Aza/veh), VPS36 (ProbeSet 11739960_a_at) / Fold change (ACY-1035/veh), VPS36 (ProbeSet 11739960_a_at) / RFU SYPL1 (11715823_x_at) / Fold change /veh SYPL1 (11715823_x_at) / RFU IGFBP7 (11715501_s_at) / Fold change /veh IGFBP7 (11715501_s_at) / RFU REEP3 (11722064_at) / Fold change /veh REEP3 (11722064_at) / RFU IGLL1 (11728026_x_at) / Fold change /veh IGLL1 (11728026_x_at): dose or concentration left out as unconfirmed
Details: ProbeSet 11717308_a_at; LIST B

Nc1ncn([C@@H]2O[C@H](CO)[C@@H](O)[C@H]2O)c(=O)n1 [azacitidine]
RFU, WDR75: 348.11 RFU
